These results are taken from patent publication US11872261B2, “Lipoprotein targeting protease inhibitors and uses” (The United States of America, as represented by the …, priority 2016, dated 2024).

The structures appear in SMILES notation.

Common to all, as to type: in vivo, human
Assay [1] can be described thus: Clinical pilot study: lipoprotein particle numbers by nuclear magnetic resonance. To be noted: 20 mg/day, 28 days vs baseline. The method, then: FIG. 1A-1C. Effect of rosuvastatin on plasma lipids and lipoprotein particle numbers. (FIG. 1A) Rosuvastatin effects on total plasma lipid levels (TC=total cholesterol; HDL-C=HDL cholesterol; LDL-C=LDL cholesterol; TG=triglyceride). The effect of rosuvastatin on LDL particle number (FIG. 1B) and HDL particle number (FIG. 1C) were measured by nuclear magnetic resonance. T0 and […] are time points indicating baseline and after 28 days of rosuvastatin treatment, respectively. Data are mean±standard deviation. * indicates p<0.01. Fasting blood samples were obtained from ten healthy volunteers participating in a study of the NIH Center for Human Immunology, intended to evaluate effects of a statin on the immune system. This protocol was approved by the institutional review board of the National Heart, Lung, and Blood Institute (NHLBI) and registered at clinicaltrials.gov (NCT01200836); all participants provided written informed consent. Three males and seven females were enrolled, with an average age of 44.1±11 years. Participants were selected to have normal LDL-C (<130 mg/dL) and were not on any lipid modification therapy prior to the study. […] HDL-C was measured by a direct assay (Siemens) and LDL-C was determined by the Friedewald equation. Lipoprotein particle numbers and average particle sizes were determined from heparinized plasma on a […] […]

Assay [2] deals with lipoprotein proteome (LDL, HDL-L, HDL-S). As to the kind of experiment: Lipoprotein proteomics, spectral counting of LDL, HDL-L and HDL-S pools. To be noted: 28 days vs baseline. Here is the method:
Collected plasma from each subject at baseline (n=10) and after 28 days of rosuvastatin treatment (n=10) was applied to two Superdex 200 columns (GE Healthcare) arranged in series on an Akta FPLC system. The flow rate was set to 0.5 mL/min and 0.5 mL fractions were collected. Fractions were assayed for phosphatidylcholine, total cholesterol, free cholesterol and triglyceride by enzymatic assays (Wako Diagnostics) to determine position of elution for lipoproteins. For each subject, fractions were combined to make LDL (elution vol. 17.5-20 mL), HDL-large (HDL-L; elution vol. 21-23 mL) and HDL-small (HDL-S; elution vol. 23-25 mL) pools, generating a total of 60 samples for MS analysis.
Pooled FPLC fractions were applied to a phospholipid binding resin and washed to isolate lipid bound protein components, as previously described (Gordon et al., J Proteome Res 9: 5239-5249, 2010). Resin bound proteins were then subjected to overnight trypsin digestion at 37° C. Resulting peptides were collected and then reduced with dithiothreitol (200 mM; 30 min at 37° C.) and carbamidomethylated with iodoacetamide (800 mM; 30 min at 25° C.). Digest solutions were dried, reconstituted in 100 μL of water+0.1% formic acid and desalted using ZipTips (Millipore), and stored at −20° C. until MS analysis.
Desalted samples were dried and reconstituted in 20 μL of water+0.1% formic acid and 10 μL was analyzed on a Thermo Orbitrap Velos Mass Spectrometer instrument. Blank runs were performed between each sample to prevent carry over. Peak lists were generated using Proteome Discoverer (version 1.3.0.339) and resulting spectra were searched against the SwissProt database (version 012214), using Mascot (version 2.4.0) to identify protein components of the lipoprotein fractions (fragment ion mass tolerance of 0.80 Da and a parent ion tolerance of 20 PPM). Search criteria included: human taxonomy, fixed modification: carbamidomethylation (C), variable modifications: oxidation (M), deamidation (N, Q) and up to two missed trypsin cleavage sites were allowed. Validation of peptide and protein identifications was performed using Scaffold software (version 4.1.1) and a 1.0% false discovery rate (FDR) for both peptide and protein thresholds and a minimum of 2 identified peptides were required per protein. Calculated decoy FDR for peptide and protein identifications were 0.03% and 0.7%, respectively. Spectral counting was used as a semi-quantitative comparison of protein abundance between baseline and on-treatment samples using normalized spectrum count calculated by the Scaffold software. Comparisons were only performed to estimate the relative abundance of the same protein in the same lipoprotein pool before and after rosuvastatin treatment; no comparisons were made between lipoprotein fractions. Data was analyzed by student's T-test to identify proteins with statistically significant (p<0.05) changes in normalized spectral counts. Because this MS analysis was intended primarily for screening purposes, to identify candidates for hypothesis driven functional experiments, the data analysis was not corrected for multiple comparisons. All MS data have been deposited to the ProteomeXchange Consortium (Vizcaino et al., Nat Biotechnol 32: 223-226, 2014) via the PRIDE partner repository with the dataset identifier PXD002633.
To test our hypothesis that rosuvastatin alters the lipoprotein proteome, we pooled fractions containing LDL and HDL and used mass spectrometry (MS) to analyze the lipid associated protein content of each of these lipoproteins in each subject at baseline and after 28 days on rosuvastatin. The HDL peak was divided into two halves, representing large and small HDL, to gain additional insight given the proteomic complexity of HDL. […]

In assay [3] the test system is alpha-1-antitrypsin (A1AT). The assay can be described thus: ELISA of A1AT in large HDL fraction and in plasma. An excerpt:
FIG. 5A-5C. Quantitative measurement of alpha-1-antitrypsin on HDL and in plasma. (FIG. 5A) Individual patient spectral counts for alpha-1-antitrypsin (A1AT) in large HDL at baseline (T0) and after 28 days (T28) of rosuvastatin treatment, n=10 for each time point. The “n=5” indicator points to data from 5 subjects with a high degree of overlap. (FIG. 5B) Quantitative measurement of A1AT in large HDL by ELISA assay. (FIG. 5C) Time course of plasma A1AT concentrations during rosuvastatin treatment and after two-week washout period (Day 42 time point). * indicates p<0.05 and ** indicates p<0.01 compared to T0.
To more quantitatively evaluate the change in A1AT levels observed in the MS data, we performed ELISA assays to measure A1AT in the large HDL fractions from all subjects.
In addition to measuring the A1AT content of large HDL, we also measured total A1AT in plasma. There was a clear trend of increasing plasma A1AT while on treatment and a return to baseline after a two week treatment washout, this effect was relatively small, approximately 10% (FIG. 5c). […] We calculated an A1AT:HDL-particle ratio (mol:mol) of about 1:100 at baseline and 1:25 after rosuvastatin treatment.

Take `CC(C)c1nc(N(C)S(C)(=O)=O)nc(-c2ccc(F)cc2)c1/C=C/[C@@H](O)C[C@@H](O)CC(=O)O` [rosuvastatin]: the “increase of HDL-p” value in assay [1] (not statistically significant) came out at 6.2%. In assay [1] (p<0.001), the “reduction of LDL particle number (LDL-p)” value amounted to 51%. Further, in assay [2] (LDL fraction), the “change in Ig kappa chain V-II spectral counts” value is “+68%”; the “change in complement C3 spectral counts” value is “+71%”; the “magnitude of reductions in protein spectral counts, LDL fraction” value is listed as −20 to −71%. In assay [2] (large HDL), the “change in Ig lambda like polypeptide 5 spectral counts” value was −12%, the “change in N-acetylmuramoyl-L-alanine amidase spectral counts” value is reported as −69%, the “change in alpha-1-antitrypsin (A1AT) spectral counts” value is recorded as “+2438%” and the “change in ceruloplasmin spectral counts” value was “+27%”. In assay [2] (large HDL), the “change in clusterin spectral counts” value was −13%, the “change in kallikrein spectral counts” value was −26% and the “increase in A1AT spectral counts associated with large HDL” value turned out to be 24 fold. Also, in assay [2] (small HDL fraction), the “change in alpha-1-antichymotrypsin spectral counts” value was −89%, the “change in apolipoprotein C-III spectral counts” value is reported as −13%, the “change in complement C2 spectral counts” value is −44% and the “change in vitronectin spectral counts” value is “+23%”. In assay [3] (ELISA, high responders, range), the “elevation of A1AT in large HDL fraction, high responders” value is on record as 5-18 fold. For the same compound, the “increase in A1AT levels in large HDL fraction, low-responders” value in assay [3] (ELISA, low-responders, range) was 6-36%. Also, the “average increase in HDL-L associated A1AT by ELISA” value in assay [3] (HDL-L, 28 days vs baseline, all subjects) is 5.7 fold. The “fraction of total A1AT bound to HDL after therapy” value in assay [3] (estimated from A1AT content of HDL-L and plasma, baseline 0.84±0.037%) is listed as “approximately 4.54±1.73%”. The “increase of total plasma A1AT while on treatment” value in assay [3] (plasma, return to baseline after two week washout) is “approximately 10%”.
